Reference: publication PMC12348470, “Amino Acid Substitutions in Bacteriocin Lactolisterin BU Reveal Functional Domains Involved in Biological Activity Against Staphylococcus aureus” (Molecules, 2025)
Several values for one entry are separate records, joined by “and”; a condition that tells them apart may be missing. Identical values can stand only once. Like-named read-outs stand apart in the source and are kept apart here. Ends that are not written are not given here.

Assays:
[1] = test system: Caco-2 cells
Description: Caco-2 cells were used in the toxicity assay to model the human intestinal epithelium, as they closely mimic the morphology and function of enterocytes. This makes them a relevant in vitro system for evaluating the potential cytotoxic effects of bacteriocins upon oral exposure or gastrointestinal application.
The cytotoxic effects of peptides were evaluated on human colorectal adenocarcinoma Caco-2 cells (ATCC HTB-37). The cells were cultured in Dulbecco’s Modified Eagle Medium (DMEM, high glucose; Gibco, Thermo Fisher Scientific) supplemented with 10% fetal bovine serum (FBS) and 1% penicillin–streptomycin. The cells were maintained at 37 °C in a humidified incubator with 5% CO2 and subcultured twice weekly, according to Popovic et al..
Cytotoxic effects of peptides on Caco-2 cells were assessed using a lactate dehydrogenase (LDH) release assay according to the manufacturer’s protocol (Lactate Dehydrogenase Cytotoxicity Assay Kit (Thermo Fisher Scientific, Waltham, MA, USA)). The Caco-2 cells were seeded in 96-well flat-bottom plates at a density of 2 × 10^4 cells per well and allowed to reach confluency over 48 h at 37 °C and 5% CO2.
The cells were then incubated for 24 h. Untreated cells (incubated with medium only) served as a negative control, and cells treated with LDH Lysis buffer were used as a positive control.
Following peptide treatment, 50 µL of cell culture supernatant was transferred from each well into a new 96-well plate. LDH reaction mixture (50 µL) was added to each well and incubated at room temperature for 30 min in the dark. The absorbance was measured at 490 nm using a microplate reader.
Cytotoxicity (%) was calculated using the following formula: Cytotoxicity (%) = Asample − Anegative/Apositive − Anegative × 100
(§1) The assay was performed in triplicate.

[2] = test system: Danio rerio embryos; assay: Zebrafish embryo toxicity (OECD TG 236); format: in vivo; conditions: for LC50 (zebrafish embryos): exposure to 120 hpf, 28 °C, 10 embryos/well, triplicate, LL.2 model, mean ± SD, n = 3
Description: Embryos were exposed to six different increasing concentrations of each peptide for 5 consecutive days (120 hfp) and examined for survival and signs of toxicity, following toxicological endpoints (Table S1).
The toxicity of synthetic peptide variants was assessed in vivo using Danio rerio embryos, in accordance with OECD Test Guideline 236 (Fish Embryo Acute Toxicity Test) and the European Directive 2010/63/EU on the protection of animals used for scientific purposes, according to Aleksic et al.. All procedures were conducted at the Institute of Molecular Genetics and Genetic Engineering, University of Belgrade.
Wild-type adult zebrafish were maintained under standard laboratory conditions (28 °C; 14:10 h light–dark cycle). Embryos were obtained via pairwise mating and collected within 1 h post-fertilization (hpf). At 5 hpf, the embryos were randomly distributed into 24-well plates (10 embryos/well, 1 mL embryo medium per well) containing embryo water (0.2 mg/mL Instant Ocean® salts in distilled water). Peptides were tested at five concentrations (e.g., 1.56–25 µg/mL) in triplicate. Peptide solvent was used as a negative control. The plates were incubated at 28 °C without media replacement.
Embryonic development was monitored using an inverted microscope (Zeiss Stemi 508; Carl Zeiss Microscopy GmbH, Jena, Germany). Lethal endpoints and sublethal malformations were scored according to OECD guidelines (Table S1). At 120 hpf, the embryos were anesthetized using 0.1% tricaine, photographed, and euthanized via freezing at −20 °C for 24 h.
LC50 values were estimated using the log–logistic binomial model (LL.2) from the drc package in R.
Dose–response curves and LC50 values were estimated using the log–logistic binomial model (LL.2) from the drc package in R [79] (version 2025.05.0). Mortality data were modeled as proportions of dead individuals relative to total individuals tested, and 95% confidence intervals for LC50 were calculated using the delta method.

[3] = test system: sheep erythrocytes; assay: Hemolysis assay; format: cell-based; conditions: for hemolytic activity, in words: 6.25 to 50 µg/mL, sheep erythrocytes, 37 °C, 1 h
Description: Hemolytic activity of peptides was assessed as described by Dong et al., with some modifications. Fresh defibrinated sheep blood was obtained from the Institute of Virology, Vaccines and Sera “Torlak” (Belgrade, Serbia). Erythrocytes were washed three times with sterile Tris-buffered saline (TBS, 10 mM TRIS-HCl, pH 7.4, 150 mM NaCl) by centrifugation at 800× g for 5 min and resuspended to a final 2% (v/v) erythrocyte suspension in TBS.
Peptide solutions (0.02 M HCl) were diluted in Tris-buffered saline (TBS, 10 mM TRIS-HCl, pH 7.4, 150 mM NaCl) to final concentrations ranging from 6.25 to 50 µg/mL. In a 96-well flat-bottom plate, 100 µL of peptide solution was mixed with 100 µL of erythrocyte suspension and incubated at 37 °C for 1 h.
After incubation, the plates were centrifuged at 1000× g for 5 min, and 100 µL of the supernatant was transferred to a flat-bottom 96-well plate. Absorbance was measured at 540 nm using a microplate reader (model BioTek Epoch Microplate Spectrophotometer; Agilent Technologies, Winooski, VT, USA).
Hemolysis (%) was calculated relative to a negative control (TBS; 0% lysis) and a positive control (0.1% SDS; 100% lysis) using the formula: Hemolysis (%)=Asample−ATBS/ASDS−ATBS×100
as §1

[4] = test system: spa; conditions: half MIC, 16–18 h, 37 °C, normalised to gmk, duplicate
Excerpt: (§2) Six virulence-related genes were selected (agrA, clfA, icaR, lukSPV, spa, and hla) to capture a representative profile of quorum sensing regulation (agrA), adhesion (clfA), biofilm repression (icaR), immune evasion (spa), and cytolytic toxin production (lukSPV and hla), providing an exploratory view of how peptide treatment influences the distinct profile of S. aureus pathogenicity.
(§3) The effect of sub-inhibitory peptide concentrations on S. aureus ATCC 25923 virulence gene expression was evaluated using quantitative real-time PCR (RT-qPCR). […] Untreated bacterial cultures in corresponding media served as controls.
(§4) Total RNA was extracted using the RNeasy Mini Kit (QIAGEN GmbH, Hilden, Germany). Samples were treated with Dnase I (Thermo Fisher Scientific) to remove genomic DNA contamination. RNA concentration and purity were determined using a NanoDrop spectrophotometer (A260/A280 ratio 1.9–2.1).
(§5) Complementary DNA (cDNA) synthesis was performed using […] of total RNA and the RevertAid RT Reverse Transcription Kit (Thermo Fisher Scientific) with random hexamer primers, according to the manufacturer’s instructions. Quantitative PCR was performed using FastGen 2x IC Green qPCR Universal (Nippon Genetics) on a LineGene 9600 Plus Real Time thermocycler (Bioer Technology Co., Ltd., Hangzhou, China). Primer sequences (Table S3) for the virulence-related genes agrA, clfA, hla, icaR, lukS-PV, and spa were used. The housekeeping gene gmk (guanylate kinase) was used for normalization.
(§6) Primer efficiency (90–110%) and specificity were confirmed by melt curve analysis. Relative expression levels were calculated using the ΔΔCt method, as reported by Livak et Schmittgen, comparing treated samples to their corresponding untreated controls in each medium. A log2 fold change ≥1 or ≤−1 was considered biologically significant. All experiments were performed in duplicate.

[5] = test system: agrA; conditions: half MIC, 16–18 h, 37 °C, normalised to gmk, duplicate
Excerpt: as §2, §3, §4, §5, §6

[6] = test system: clfA; conditions: half MIC, 16–18 h, 37 °C, normalised to gmk, duplicate
Excerpt: as §2, §3, §4, §5, §6

| Sequence | TI (LC50/MIC), Caco-2 [1] | concentration at which yolk sac retention was observed ([2]; 120 hpf) | concentration inducing lethal egg coagulation ([2]; 120 hpf) | LC50 (zebrafish embryos) [2] | hemolytic activity, in words [3] | spa expression, log2 fold-change vs untreated control ([4]; FBS) | spa expression, log2 fold-change vs untreated control ([4]; LB medium) | agrA expression, log2 fold-change vs untreated control ([5]; FBS) | agrA expression, log2 fold-change vs untreated control ([5]; LB medium) | clfA expression, log2 fold-change vs untreated control ([6]; FBS) | clfA expression, log2 fold-change vs untreated control ([6]; LB medium) | concentration causing general growth delay ([2]; 120 hpf) | concentration causing hemorrhaging ([2]; 120 hpf) | concentration causing pericardial edema ([2]; 120 hpf) | embryo mortality, in words ([2]; 120 h dose–response) | Hemolytic activity (%) at 25 µg/mL ([3]; pH 7.4) | Hemolytic activity (%) at 50 µg/mL ([3]; pH 7.4) |
| --- | --- | --- | --- | --- | --- | --- | --- | --- | --- | --- | --- | --- | --- | --- | --- | --- | --- |
| MWGRILATVAKYGPKAVSWAWQHKWELINMGDLAFRYIQRIWG [Peptide G7A] | 5.11 | 3.13 µg/mL | 6.25 µg/mL | 2.98 µg/mL | some membrane-disruptive potential at elevated concentrations (50 µg/mL) | -0.27 log2 fold change | 0.37 log2 fold change | 0.61 log2 fold change | -0.32 log2 fold change | -0.69 log2 fold change | -0.59 log2 fold change | – | – | – | – | – | – |
| MWARILGTVAKYGPKAVSWAWQHKWELINMGDLAFRYIQRIWG [Peptide G3A] | 7.03 | 6.25 µg/mL | – | 5.69 µg/mL | no measurable hemolysis up to 25 µg/mL | 1.43 log2 fold change | 2.16 log2 fold change | -0.47 log2 fold change | -0.93 log2 fold change | -1.55 log2 fold change | 0.76 log2 fold change | – | – | – | – | – | – |
| MWGRILGTVAKYAPKAVSWAWQHKWELINMGDLAFRYIQRIWG [Peptide G13A] | 1.20 | 1.56 µg/mL | 1.56 µg/mL | – | dose-dependent hemolysis | 1.69 log2 fold change | -0.32 log2 fold change and −0.33 log2 fold change | 0.82 log2 fold change | -0.40 log2 fold change | 0.64 log2 fold change | -0.19 log2 fold change | 1.56 µg/mL | 1.56 µg/mL | 1.56 µg/mL | nearly complete mortality at concentrations ≥3.1 µg/mL | 22.69% | 28.86% |
